Source: paper PMC6362833 (ACS chemical neuroscience, 2017)
“And” between values parts separate entries of the source, which are not always exact repeats. Equal entries are not always repeated.

Experiments:
CaM/AC8-Nt interaction = CaM/AC8-Nt interaction (Homo sapiens, UniProt P0DP23); experiment: Fluorescence polarization; format: binding; conditions: for IC50: FP; for slope of concentration-response curve: FP concentration response
CaM/AC8-C2b interaction = CaM/AC8-C2b interaction (Homo sapiens, UniProt P0DP23); experiment: Fluorescence polarization; format: binding; conditions: for IC50: FP; for inhibition of CaM/AC8-C2b relative to EGTA control: maximal inhibition, no detergent
CaM/AC8 complex = CaM/AC8 complex (Homo sapiens, UniProt P0DP23); experiment: AC8/CaM NanoBiT complementation assay in HEK-293T cells; format: cell-based, rat AC8; conditions: 30 min pretreatment
HEK-293T cells = experiment: CytoTox-Fluor acute cytotoxicity assay; format: cell-based; conditions: 30 min; for effect on cell viability: up to 31.6 μM
[1] = molecular target: (Homo sapiens, UniProt P0DP23); experiment: CaM-stimulated AC1 activity in membrane preparations; format: biochemical; conditions: read-out: AC1 % inhibition
AC1 [2] = experiment: as above; format: biochemical; conditions: membranes of HEK293 cells stably expressing AC1, CaM-stimulated
AC1, sequence (Q08828 whole entry): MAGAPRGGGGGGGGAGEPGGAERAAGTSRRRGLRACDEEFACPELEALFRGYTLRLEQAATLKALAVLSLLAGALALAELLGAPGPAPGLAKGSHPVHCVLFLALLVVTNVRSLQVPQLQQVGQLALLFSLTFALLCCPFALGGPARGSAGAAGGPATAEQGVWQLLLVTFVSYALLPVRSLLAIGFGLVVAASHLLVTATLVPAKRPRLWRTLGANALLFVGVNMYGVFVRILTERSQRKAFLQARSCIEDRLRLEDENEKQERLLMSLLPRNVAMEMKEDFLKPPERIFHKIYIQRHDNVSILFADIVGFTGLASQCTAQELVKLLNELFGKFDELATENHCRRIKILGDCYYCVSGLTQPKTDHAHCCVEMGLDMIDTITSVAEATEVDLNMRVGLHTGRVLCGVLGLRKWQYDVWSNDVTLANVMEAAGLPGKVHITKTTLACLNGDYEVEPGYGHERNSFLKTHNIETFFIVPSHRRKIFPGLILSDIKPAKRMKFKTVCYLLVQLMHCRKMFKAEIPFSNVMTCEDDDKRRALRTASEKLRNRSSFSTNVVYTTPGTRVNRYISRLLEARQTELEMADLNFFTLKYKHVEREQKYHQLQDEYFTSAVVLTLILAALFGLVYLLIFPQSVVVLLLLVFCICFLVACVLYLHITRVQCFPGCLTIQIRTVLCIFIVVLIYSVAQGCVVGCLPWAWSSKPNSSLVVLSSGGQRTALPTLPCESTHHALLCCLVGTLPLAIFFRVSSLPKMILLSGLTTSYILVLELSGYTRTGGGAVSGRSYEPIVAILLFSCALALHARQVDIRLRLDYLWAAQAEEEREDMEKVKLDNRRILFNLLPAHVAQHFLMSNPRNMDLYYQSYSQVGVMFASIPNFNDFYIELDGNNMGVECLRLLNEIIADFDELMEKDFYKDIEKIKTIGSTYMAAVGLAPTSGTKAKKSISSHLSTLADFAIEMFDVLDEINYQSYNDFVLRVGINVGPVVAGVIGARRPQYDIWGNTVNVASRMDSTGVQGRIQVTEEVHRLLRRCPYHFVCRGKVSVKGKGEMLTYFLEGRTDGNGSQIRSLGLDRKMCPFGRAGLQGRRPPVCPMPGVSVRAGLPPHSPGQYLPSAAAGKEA

AC8 = AC8 (Homo sapiens, UniProt P40145); experiment: CaM-stimulated AC8 activity in membrane preparations; format: biochemical; conditions: for potency against AC8 compared with AC1: membrane preparations; for inhibition at 100 µM: read-out: AC8 % inhibition
AC8, sequence (P40145 whole entry): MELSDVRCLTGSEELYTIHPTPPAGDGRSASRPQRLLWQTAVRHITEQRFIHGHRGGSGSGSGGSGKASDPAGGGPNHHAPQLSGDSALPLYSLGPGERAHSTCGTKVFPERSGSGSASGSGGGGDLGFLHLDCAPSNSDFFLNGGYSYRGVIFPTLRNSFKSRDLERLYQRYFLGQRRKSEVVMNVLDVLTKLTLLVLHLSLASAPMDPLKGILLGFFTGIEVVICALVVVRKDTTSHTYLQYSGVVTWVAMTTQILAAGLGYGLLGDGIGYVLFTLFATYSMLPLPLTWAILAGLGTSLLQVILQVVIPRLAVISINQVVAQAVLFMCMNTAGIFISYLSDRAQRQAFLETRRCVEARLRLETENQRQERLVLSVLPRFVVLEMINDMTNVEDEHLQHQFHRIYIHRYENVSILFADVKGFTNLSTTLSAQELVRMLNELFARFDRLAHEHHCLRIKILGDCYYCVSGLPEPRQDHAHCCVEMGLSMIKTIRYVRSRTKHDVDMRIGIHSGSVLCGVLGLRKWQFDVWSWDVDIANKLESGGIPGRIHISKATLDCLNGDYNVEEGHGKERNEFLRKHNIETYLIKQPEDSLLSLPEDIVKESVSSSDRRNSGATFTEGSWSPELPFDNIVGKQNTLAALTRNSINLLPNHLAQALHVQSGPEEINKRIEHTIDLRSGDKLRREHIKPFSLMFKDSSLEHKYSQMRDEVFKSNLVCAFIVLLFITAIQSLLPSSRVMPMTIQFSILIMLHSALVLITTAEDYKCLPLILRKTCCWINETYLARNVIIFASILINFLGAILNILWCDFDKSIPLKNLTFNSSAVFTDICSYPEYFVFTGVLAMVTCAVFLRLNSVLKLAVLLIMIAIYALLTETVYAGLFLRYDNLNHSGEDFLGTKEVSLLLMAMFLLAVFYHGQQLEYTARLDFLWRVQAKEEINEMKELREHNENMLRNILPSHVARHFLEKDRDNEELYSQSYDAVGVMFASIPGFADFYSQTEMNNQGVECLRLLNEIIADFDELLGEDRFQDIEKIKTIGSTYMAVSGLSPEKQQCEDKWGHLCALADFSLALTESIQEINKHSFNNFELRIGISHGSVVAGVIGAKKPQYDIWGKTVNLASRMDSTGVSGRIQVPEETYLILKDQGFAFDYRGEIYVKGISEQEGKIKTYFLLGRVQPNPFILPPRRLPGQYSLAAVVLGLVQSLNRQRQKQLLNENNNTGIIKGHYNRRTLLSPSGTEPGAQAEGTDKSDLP

[3] = CytoTox-Fluor acute cytotoxicity assay; format: cell-based; conditions: human, HEK293T cells, pH 7.4
HERG potassium channel = conditions: cited from earlier work
[4] = molecular target: GST-tagged calmodulin (N-terminally 6X-His-GST-tagged human CaM, residues 1-149) (human) (UniProt P0DP23); experiment: fluorescence polarisation
L-type Ca^2+ channels = conditions: cited from earlier work
AC1 [5] = molecular target: AC1 (Homo sapiens, UniProt Q08828); experiment: CaM-stimulated AC1 activity in membrane preparations; format: biochemical
AC1 (Homo sapiens, UniProt Q08828), sequence (Q08828 whole entry): as the sequence (Q08828 whole entry) above

[6] = AC8-Nt pIC50, 0% Triton, 316 nM GST-CaM, 100 nM Cy5-AC8-Nt, no Triton X-100
[7] = AC8-Nt pIC50, 0.01% Triton, 0.01% Triton X-100
[8] = AC8-C2b pIC50, 0% Triton, 316 nM GST-CaM, 100 nM Cy5-AC8-C2b, no Triton X-100
[9] = AC8-C2b pIC50, 0.01% Triton, 0.01% Triton X-100

Row | Molecule | IC50 (CaM/AC8-Nt interaction; [6]) | IC50 (CaM/AC8-Nt interaction; [7]) [µM] | inhibition at 100 µM [1] [%] | AC1 pIC50 (AC1 [2]) | IC50 (AC8) [µM] | inhibition at 100 µM (AC8) [%] | effect on cell viability (HEK-293T cells) | also measured
1 | Clc1ccc(C(c2ccc(Cl)cc2)n2cc[n+](CC(OCc3ccc(Cl)cc3Cl)c3ccc(Cl)cc3Cl)c2)cc1 (stereo not drawn) [CDZ, calmidazolium chloride] | 2.75 µM and 2.82 µM | 2.88 | 97 ± 3 | 4.87 ± 0.06 | 4.68 | 100 | appreciable cell toxicity at 31.6 μM | inhibition of CaM/AC8-Nt FP (CaM/AC8-Nt interaction; concentration response up to 100 μM, relative to EGTA control): complete inhibition; effect of Triton X-100 on inhibition of CaM/AC8-C2b (CaM/AC8-C2b interaction; 0.01% Triton X-100): Increased inhibition; IC50 (CaM/AC8-C2b interaction; [8]): 3.16 µM; IC50 (CaM/AC8-C2b interaction; [9]): 9.77 µM; inhibition of CaM/AC8-C2b relative to EGTA control (CaM/AC8-C2b interaction): approximately 50%
2 | CCCCC(CC)CNC(=N)NC(=N)NCCCCCCNC(=N)NC(=N)NCC(CC)CCCC (stereo not drawn) [alexidine] | 2.14 µM | 1.41 | 162 ± 10 | 5.24 ± 0.1 | 4.9 | 106 ± 2 | – | slope of concentration-response curve (CaM/AC8-Nt interaction): −2.7 ± 0.2; IC50 (CaM/AC8-C2b interaction; [8]): 5.89 µM; IC50 (CaM/AC8-C2b interaction; [9]): 5.89 µM; concentration at which cell viability begins to be reduced (HEK-293T cells; HEK-293T): ≥ 10 µM
3 | unlabeled AC8-C2b peptide (from UniProt P40145 1191-1214) | – | – | – | – | – | – | – | pIC50 [4]: 4.95
4 | CN1CCN(CCCN2c3ccccc3Sc3ccc(C(F)(F)F)cc32)CC1 [TFP, trifluoperazine] | – | – | – | – | – | – | without negatively affecting cell viability | –
5 | CCCCCCCCCCCCCCCC[N+](C)(C)C [cetrimonium, cetrimonium bromide] | 11.5 µM | 11.5 | – | – | 22.4 | 102 ± 2 | – | NanoBiT potency (CaM/AC8 complex): potencies similar to that observed for CDZ; viability at 30 min, 31.6 µM [3]: 89%; IC50 (AC1 [5]): 39.8 µM; inhibition at 100 µM (AC1 [5]; read-out: AC1 % inhibition): 86 ± 7%; potency against AC8 compared with AC1 (AC8): slightly more potent against AC8 than AC1
6 | NCCCCCCNS(=O)(=O)c1cccc2c(Cl)cccc12 [W7, N-(6-aminohexyl)-5-chloro-1-naphthalenesulfonamide] | – | – | – | – | – | – | without negatively affecting cell viability | –
7 | CC(C)(C)CC(C)(C)c1ccc(OCCOCC[N+](C)(C)Cc2ccccc2)cc1 [benzethonium, Benzethonium chloride] | – | – | – | – | – | – | no negative effect on cell viability | –
8 | unlabeled AC8-Nt peptide (from UniProt P40145 30-54) | – | – | – | – | – | – | – | pIC50 [4]: 5.3

Now from value to molecule, other results behind:

Row | IC50 (CaM/AC8-Nt interaction; [6]) | IC50 (CaM/AC8-Nt interaction; [7]) [µM] | inhibition at 100 µM [1] [%] | AC1 pIC50 (AC1 [2]) | IC50 (AC8) [µM] | inhibition at 100 µM (AC8) [%] | Molecule | effect on cell viability (HEK-293T cells) | also measured
9 | 5.37 µM | 9.12 | 77 ± 6 | 4.20 ± 0.06 | 38.9 | 91 ± 1 | CCCCCCCCCCCCCCCC[N+](C)(C)CCN(Cc1ccc(OC)cc1)c1ncccn1 [thonzonium, Thonzonium bromide] | did not adversely affect cell viability | effect of Triton X-100 on inhibition of CaM/AC8-C2b (CaM/AC8-C2b interaction; 0.01% Triton X-100): Increased inhibition; IC50 (CaM/AC8-C2b interaction; [8]): 10 µM; IC50 (CaM/AC8-C2b interaction; [9]): 12.6 µM; inhibition of CaM/AC8-C2b relative to EGTA control (CaM/AC8-C2b interaction): approximately 50%; NanoBiT potency (CaM/AC8 complex): potencies similar to that observed for CDZ; potency against AC8 compared with AC1 (AC8): slightly more potent against AC8 than AC1
10 | 14.5 µM | 15.5 | 96 ± 4 | 4.55 ± 0.09 | 17.4 | 104 ± 1 | CCCCCCCCCCCC[N+](C)(C)CCOc1ccccc1 [domiphen, Domiphen bromide] | – | viability at 30 min, 31.6 µM [3]: 99%; IC50 at HERG potassium channel (HERG potassium channel): single-digit nanomolar
11 | 16.6 µM | 33.1 | 103 ± 4 | 4.58 ± 0.03 | 24 | 99 ± 1 | CCCCCCCCOc1ccccc1C(=O)Nc1ccc(C(=O)OCC[N+](C)(CC)CC)cc1 [otilonium, otilonium bromide] | – | slope of concentration-response curve (CaM/AC8-Nt interaction): −3.5 ± 0.2; viability at 30 min, 31.6 µM [3]: 77%; IC50 at L-type Ca2+ channels (L-type Ca^2+ channels): single-digit micromolar
